Measurements: publication PMC4741889, “Ligand-based chemoinformatic discovery of a novel small molecule inhibitor targeting CDC25 dual specificity phosphatases and displaying in vitro efficacy against melanoma cells” (Oncotarget, 2015)

Biological target: T1, CDC25B (Homo sapiens, UniProt P30305)
T1 construct: Recombinant forms of the catalytic domains of CDC25A, -B and -C were obtained through the vectors pET28a-CDC25A-cd, pET28a-CDC25B-cd and pET28a-CDC25C-cd; made in house
T1 sequence (P30305 431-538 limits assumed): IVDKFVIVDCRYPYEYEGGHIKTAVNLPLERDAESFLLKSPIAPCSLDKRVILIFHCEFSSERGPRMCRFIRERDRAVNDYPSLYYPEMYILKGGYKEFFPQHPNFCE
Assay: Residual phosphatase activity of recombinant CDC25B, fluorimetric OMFP assay
Type: biochemical
Settings: 10 nM CDC25B, 25 μM OMFP, read-out: CDC25B residual activity (%) in the presence of [inhibitor]
Procedure: Among the twenty-five structures identified from the multiple ligand-based chemoinformatic approach, eight compounds (2, 10, 12–14, and 16–18) were excluded from the analysis, because endowed with a strong fluorescent signal, which interfered with the emission wavelength of the synthetic substrate 3-O-methylfluorescein phosphate (OMFP) used in the fluorimetric assay. The inhibition of the phosphatase activity of CDC25B by the remaining seventeen analogs was evaluated in the presence of two different concentrations of these compounds (Table 2). […] For this reason, only one of these latter compounds, i.e. 3, was included in the following analysis.
The enzymatic activity of the catalytic domains of CDC25A, -B and -C were determined through a fluorimetric method, which monitored the dephosphorylation of the synthetic substrate OMFP, essentially as previously described. In steady-state enzyme kinetic studies, the residual phosphatase activity of purified recombinant CDC25B was measured at 30°C in the presence of different concentrations of the various inhibitors, using a computer-assisted Cary Eclipse spectrofluorimeter (Varian) equipped with an electronic temperature controller. Excitation and emission wavelengths were set at 485 and 530 nm, respectively; both excitation and emission slits were set at 10 nm. The reaction mixture contained 10 nM CDC25B and different concentrations of the various inhibitors in 500 μL final volume of 20 mM Tris-HCl, pH 7.8, 1 mM DTT. DMSO was used as vehicle control. The reaction started by the addition of 25 μM OMFP, and the formation of the fluorescent product o-methylfluorescein was monitored continuously. The rate of OMFP hydrolysis was expressed as arbitrary units per min (a.u./min). The comparison of the rates determined in the absence and in the presence of the various inhibitors allowed the calculation of the residual phosphatase activity, expressed as a percentage.

O=C(O)C1CCCCC1c1c2ccc(=O)cc-2oc2cc(O)ccc12 (centres unmarked) [Compound 7, 2-(6-hydroxy-3-oxo-3H-xanthen-9-yl)cyclohexanecarboxylic acid]
remaining activity at 0.2 µM (0.2 μM inhibitor): 44%
remaining activity at 1 µM (1 μM inhibitor): 1%
